# Results: patent US9956293B2, “Targeted therapeutics” (Madrigal Pharmaceuticals, Inc., priority 2014, dated 2018)
# Test system: HER2
# Assay: HER2 degradation assay with BT-474 cell line (Example 12, FACS)
# Type: cell-based
# Settings: Homo sapiens, BT-474; SDC-TRAPs of the 41st table
# From the text: HER2 Degradation Assay with BT-474 Cell Line
# HER2 has emerged as a key target for anticancer drugs due to its intrinsic involvement in the phosphatidylinositol-3-kinase-Akt/protein kinase B (PI3K-Akt) and the mitogen-activated protein kinase (MAPK) pathways, both of which suppress apoptosis and promote tumor cell survival, gene transcription, angiogenesis, cellular proliferation, migration, mitosis, and differentiation. The degradation of HER2 is a measure of efficacy of anticancer therapeutics that target Hsp90. Accordingly, the SDC-TRAP molecules of the invention that comprise a binding moiety that binds Hsp90 were tested in the following HER2 degradation assay.
# BT-474 cells (human breast cancer cell line ATCC HTB-20) were obtained from ATCC and seeded into 12-well tissue culture plates at 0.2×10^6/1.8 mL/well. […] Each test compound was titrated in 4-fold dilutions from 5 μM to 78 nM with DMSO and 200 μL of the titration was added to each well of the cell plate. The DMSO final concentration was 0.2%. Cells were incubated overnight at 37° C. in 5% CO2.
# Media was decanted from the plate, cells were washed 1× in PBS. 400 μL trypsin (EDTA) per well was added, and the cells were incubated for 2 to 3 minutes. Cells were collected into FACS tubes containing 1 ml culture medium to neutralize the trypsin and were centrifuged for 5 minutes at 1200 rpm. Supernatant was decanted and the cells were resuspended in 5 μL FITC (anti HER2/nu)/200 μL staining buffer (1×PBS+1% FBS+0.05% Sodium Azide)/tube. Controls were […] IgG isotype control and staining buffer only. Tubes were incubated for 30 minutes in the dark at room temperature. 1 mL staining buffer was added to each tube and the tubes were centrifuged for 6 minutes at 1200 rpm. The supernatant was decanted and 300 μL staining buffer was added to each tube, which was store at 4° C. for FACS (cytometer) analysis. The cytometer readout was normalized and the potency of each compound is evaluated with IC50 calculated with XLfit™ software.
row,Compound,IC50
1,"CC(C)c1cc(-c2nnc(O)n2-c2ccc(CN3CCN(C(=O)c4ccc(CCc5c[nH]c6nc(N)[nH]c(=O)c56)cc4)CC3)cc2)c(O)cc1O [SDC-TRAP-0068, 2-amino-5-(4-(4-(4-(3-(2,4-dihydroxy-5-isopropylphenyl)-5-hydroxy-4H-1,2,4-triazol-4-yl)benzyl)piperazine-1-carbonyl)phenethyl)-3H-pyrrolo[2,3-d]pyrimidin-4(7H)-one]",262 nM
2,"CC(C)c1cc(-c2nnc(O)n2-c2ccc(CN3CCN(C(=O)c4ccc(CCc5c[nH]c6nc(N)[nH]c(=O)c56)cc4)CC3)c(F)c2)c(O)cc1O [SDC-TRAP-0078, 2-amino-5-(4-(4-(4-(3-(2,4-dihydroxy-5-isopropylphenyl)-5-hydroxy-4H-1,2,4-triazol-4-yl)-2-fluorobenzyl)piperazine-1-carbonyl)phenethyl)-3H-pyrrolo[2,3-d]pyrimidin-4(7H)-one]",1000 nM
3,"CC(C)c1cc(-c2nnc(O)n2-c2ccc(N3CCN(C(=O)c4ccc(CCc5c[nH]c6nc(N)[nH]c(=O)c56)cc4)CC3)cc2)c(O)cc1O [SDC-TRAP-0082, 2-amino-5-(4-(4-(4-(3-(2,4-dihydroxy-5-isopropylphenyl)-5-hydroxy-4H-1,2,4-triazol-4-yl)phenyl)piperazine-1-carbonyl)phenethyl)-3H-pyrrolo[2,3-d]pyrimidin-4(7H)-one]",1040 nM
4,"CC(C)c1cc(-c2nnc(O)n2-c2ccc3c(c2)CN(C(=O)c2ccc(CCc4c[nH]c5nc(N)[nH]c(=O)c45)cc2)C3)c(O)cc1O [SDC-TRAP-0093, 2-amino-5-(4-(5-(3-(2,4-dihydroxy-5-isopropylphenyl)-5-hydroxy-4H-1,2,4-triazol-4-yl)isoindoline-2-carbonyl)phenethyl)-3H-pyrrolo[2,3-d]pyrimidin-4(7H)-one]",> 5000 nM
5,"CC(C)c1cc(-c2nnc(O)n2-c2ccc3c(c2)nc(C2CCN(C(=O)c4ccc(CCc5c[nH]c6nc(N)[nH]c(=O)c56)cc4)CC2)n3C)c(O)cc1O [SDC-TRAP-0102, 2-amino-5-(4-(4-(5-(3-(2,4-dihydroxy-5-isopropylphenyl)-5-hydroxy-4H-1,2,4-triazol-4-yl)-1-methyl-1H-benzo[d]imidazol-2-yl)piperidine-1-carbonyl)phenethyl)-3H-pyrrolo[2,3-d]pyrimidin-4(7H)-one]",> 5000 nM
6,"CC(C)c1cc(-c2nnc(O)n2-c2ccc(CC3CCN(CC4CCN(C(=O)c5ccc(CCc6c[nH]c7nc(N)[nH]c(=O)c67)cc5)CC4)CC3)cc2)c(O)cc1O [SDC-TRAP-0103, 2-amino-5-(4-(4-((4-(4-(3-(2,4-dihydroxy-5-isopropylphenyl)-5-hydroxy-4H-1,2,4-triazol-4-yl)benzyl)piperidin-1-yl)methyl)piperidine-1-carbonyl)phenethyl)-3H-pyrrolo[2,3-d]pyrimidin-4(7H)-one]",245 nM

# Same assay, conditions: Homo sapiens, BT-474; SDC-TRAPs of the 43rd table
row,Compound,IC50
1,"CCc1c2c(nc3ccc(OCC(=O)N4CCN(Cc5ccc(-n6c(O)nnc6-c6cc(C(C)C)c(O)cc6O)cc5)CC4)cc13)-c1cc3c(c(=O)n1C2)COC(=O)C3(O)CC (stereo not shown) [SDC-TRAP-0077, 9-(2-(4-(4-(3-(2,4-dihydroxy-5-isopropylphenyl)-5-hydroxy-4H-1,2,4-triazol-4-yl)benzyl)piperazin-1-yl)-2-oxoethoxy)-4,11-diethyl-4-hydroxy-1H-pyrano[3′,4′:6, 7]indolizino[1,2-b]quinoline-3,14(4H,12H)-dione]",2790 nM

# Same assay, conditions: Homo sapiens, BT-474; SDC-TRAPs of the 52nd table
row,Compound,IC50
1,"COc1ccc(-c2cnoc2-c2cc(OC)c(OC)c(OC)c2)cc1OC(=O)N1CCN(c2ccc(-n3c(O)nnc3-c3cc(C(C)C)c(O)cc3O)cc2)CC1 [SDC-TRAP-0099, 2-methoxy-5-(5-(3,4,5-trimethoxyphenyl)isoxazol-4-yl)phenyl-4-(4-(3-(2,4-dihydroxy-5-isopropylphenyl)-5-hydroxy-4H-1,2,4-triazol-4-yl)phenyl)piperazine-1-carboxylate]",677 nM

# Same assay, conditions: Homo sapiens; BT-474 cells
row,IC50,Compound
1,> 10000 nM,"CC(C)c1cc(-c2nnc(O)n2-c2ccc(CN3CCN(C(=O)Nc4cccc5c4CN(C4CCC(=O)NC4=O)C5=O)CC3)cc2)c(O)cc1O (stereo not shown) [SDC-TRAP-0109, 4-(4-(3-(2,4-di hydroxy-5-isopropylphenyl)-5-hydroxy-4H-1,2,4-triazol-4-yl)benzyl)-N-(2-(2,6-dioxopiperidin-3-yl)-1-oxoisoindolin-4-yl)piperazine-1-carboxamide]"
2,> 10000 nM,"CC(C)c1cc(-c2nnc(O)n2-c2ccc(N3CCN(CC(=O)Nc4cccc5c4CN(C4CCC(=O)NC4=O)C5=O)CC3)cc2)c(O)cc1O (stereo not shown) [SDC-TRAP-0110, 2-(4-(4-(3-(2,4-dihydroxy-5-isopropylphenyl)-5-hydroxy-4H-1,2,4-triazol-4-yl)phenyl)piperazin-1-yl)-N-(2-(2,6-dioxopiperidin-3-yl)-1-oxoisoindolin-4-yl)acetamide]"
3,4310 nM,"CC(C)c1cc(-c2nnc(O)n2-c2ccc(CC3CCN(C(=O)Nc4cccc5c4CN(C4CCC(=O)NC4=O)C5=O)CC3)cc2)c(O)cc1O (stereo not shown) [SDC-TRAP-0114, 4-(4-(3-(2,4-dihydroxy-5-isopropylphenyl)-5-hydroxy-4H-1,2,4-triazol-4-yl)benzyl)-N-(2-(2,6-dioxopiperidin-3-yl)-1-oxoisoindolin-4-yl)piperidine-1-carboxamide]"
4,1890 nM,"COc1cc(O)c(-c2nnc(C(=O)NC(C)C)n2-c2ccc(CN3CCC(C(=O)Nc4cccc5c4CN(C4CCC(=O)NC4=O)C5=O)CC3)cc2)cc1C(C)C (stereo not shown) [SDC-TRAP-0115, N-(2-(2,6-dioxopiperidin-3-yl)-1-oxoisoindolin-4-yl)-1-(4-(3-(2-hydroxy-5-isopropyl-4-methoxyphenyl)-5-(isopropylcarbamoyl)-4H-1,2,4-triazol-4-yl)benzyl)piperidine-4-carboxamide]"
5,1100 nM,"CC(C)c1cc(-c2nnc(O)n2-c2ccc(CN3CCN(C(=O)ONC(=O)CCCCCCC(=O)Nc4ccccc4)CC3)cc2)c(O)cc1O [SDC-TRAP-0117, N1-((4-(4-(3-(2,4-dihydroxy-5-isopropylphenyl)-5-hydroxy-4H-1,2,4-triazol-4-yl)benzyl)piperazine-1-carbonyl)oxy)-N8-phenyloctanediamide]"
6,2350 nM,"CC(C)c1cc(-c2nnc(O)n2-c2ccc3c(ccn3CCC3CCN(C(=O)ONC(=O)CCCCCCC(=O)Nc4ccccc4)CC3)c2)c(O)cc1O [SDC-TRAP-0118, N1-((4-(2-(5-(3-(2,4-dihydroxy-5-isopropylphenyl)-5-hydroxy-4H-1,2,4-triazol-4-yl)-1H-indol-1-yl)ethyl)piperidine-1-carbonyl)oxy)-N8-phenyloctanediamide]"
7,> 10000 nM,"CC(C)c1cc(-c2nnc(O)n2-c2ccc3c(ccn3CCC3CCN(C(=O)Nc4cccc5c4CN(C4CCC(=O)NC4=O)C5=O)CC3)c2)c(O)cc1O (stereo not shown) [SDC-TRAP-0119, 4-(2-(5-(3-(2,4-dihydroxy-5-isopropylphenyl)-5-hydroxy-4H-1,2,4-triazol-4-yl)-1H-indol-1-yl)ethyl)-N-(2-(2,6-dioxopiperidin-3-yl)-1-oxoisoindolin-4-yl)piperidine-1-carboxamide]"
8,3000 nM,"CC(C)c1cc(-c2nnc(O)n2-c2ccc(CN3CCN(C(=O)COC(=O)Nc4cccc5c4CN(C4CCC(=O)NC4=O)C5=O)CC3)cc2)c(O)cc1O (stereo not shown) [SDC-TRAP-0121, 2-(4-(4-(3-(2,4-dihydroxy-5-isopropylphenyl)-5-hydroxy-4H-1,2,4-triazol-4-yl)benzyl)piperazin-1-yl)-2-oxoethyl(2-(2,6-dioxopiperidin-3-yl)-1-oxoisoindolin-4-yl)carbamate]"
9,> 10000 nM,"CC(C)c1cc(-c2nnc(O)n2-c2ccc3c(ccn3CCOC(=O)Nc3cccc4c3CN(C3CCC(=O)NC3=O)C4=O)c2)c(O)cc1O (stereo not shown) [SDC-TRAP-0122, 2-(5-(3-(2,4-dihydroxy-5-isopropylphenyl)-5-hydroxy-4H-1,2,4-triazol-4-yl)-1H-indol-1-yl)ethyl (2-(2,6-dioxopiperidin-3-yl)-1-oxoisoindolin-4-yl)carbamate]"

# The next lines start with the compound.
row,Compound,IC50
1,"CC(C)c1cc(-c2nnc(O)n2-c2ccc(CN3CCN(CCN(C)C(=O)Nc4cccc5c4CN(C4CCC(=O)NC4=O)C5=O)CC3)cc2)c(O)cc1O (stereo not shown) [SDC-TRAP-0105, 1-(2-(4-(4-(3-(2,4-dihydroxy-5-isopropylphenyl)-5-hydroxy-4H-1,2,4-triazol-4-yl)benzyl)piperazin-1-yl)ethyl)-3-(2-(2,6-dioxopiperidin-3-yl)-1-oxoisoindolin-4-yl)-1-methylurea]",> 10000 nM
2,"CC(C)c1cc(-c2nnc(O)n2-c2ccc(CCC3CCN(C(=O)Nc4cccc5c4CN(C4CCC(=O)NC4=O)C5=O)CC3)cc2)c(O)cc1O (stereo not shown) [SDC-TRAP-0108, 4-(4-(3-(2,4-dihydroxy-5-isopropylphenyl)-5-hydroxy-4H-1,2,4-triazol-4-yl)phenethyl)-N-(2-(2,6-dioxopiperidin-3-yl)-1-oxoisoindolin-4-yl) piperidine-1-carboxamide]",> 10000 nM
